Results on six compounds are retold here after ChEMBL document CHEMBL5120839, “Design, synthesis and antibacterial activity of novel pleuromutilin derivatives with thieno[2,3-d]pyrimidine substitution” (Eur J Med Chem, 2022).

In general, MIC refers to the lowest concentration that inhibits growth of the organism.

In brackets after ≈: the same amount, converted by molar mass. Some results are limits rather than exact numbers.

For one assay, the system named is Streptococcus agalactiae. Nature of the assay: Antibacterial activity against Streptococcus agalactiae assessed as inhibition of bacterial growth incubated for 24 hrs by microbroth two-fold dilution method. In kind it is functional. In general terms: Broth dilution looks for growth in wells or tubes with falling amounts of substance.
`C=C[C@]1(C)C[C@@H](OC(=O)CSc2nc(N(C)C)c3ccsc3n2)[C@]2(C)[C@H](C)CC[C@]3(CCC(=O)[C@H]32)[C@@H](C)[C@@H]1O`: the MIC was 1.95 µg/mL (≈ 3.42 µM).
Turning to `C=C[C@]1(C)C[C@@H](OC(=O)CSc2nc(NCCO)cc(C(F)(F)F)n2)[C@]2(C)[C@H](C)CC[C@]3(CCC(=O)[C@H]32)[C@@H](C)[C@@H]1O`, the minimum inhibitory concentration (MIC) was 0.488 µg/mL (≈ 0.814 µM).
On the same count and under the same terms, under `C=C[C@]1(C)C[C@@H](OC(=O)CSc2nc(N3CCN(C)CC3)c3ccsc3n2)[C@]2(C)[C@H](C)CC[C@]3(CCC(=O)[C@H]32)[C@@H](C)[C@@H]1O` stands 0.244 µg/mL (≈ 0.389 µM); under `C=C[C@]1(C)C[C@@H](OC(=O)CSc2ncc(C)c(NCCO)n2)[C@]2(C)[C@H](C)CC[C@]3(CCC(=O)[C@H]32)[C@@H](C)[C@@H]1O`, 0.122 µg/mL (≈ 0.224 µM).
Turning to `C=C[C@]1(C)C[C@@H](OC(=O)CSc2nc(N/N=C/c3ccc(F)cc3F)c3ccsc3n2)[C@]2(C)[C@H](C)CC[C@]3(CCC(=O)[C@H]32)[C@@H](C)[C@@H]1O`, the MIC worked out at 0.061 µg/mL (≈ 0.0893 µM).
For the compound `C=C[C@]1(C)C[C@@H](OC(=O)CSc2nc(N/N=C/c3ccccc3[N+](=O)[O-])c3ccsc3n2)[C@]2(C)[C@H](C)CC[C@]3(CCC(=O)[C@H]32)[C@@H](C)[C@@H]1O`, the minimum inhibitory concentration (MIC) amounted to 0.0153 µg/mL (≈ 0.0221 µM).

The test system of the next assay is Staphylococcus aureus. Nature of the assay: Antibacterial activity against Staphylococcus aureus assessed as diameter of the inhibition circle at 1 mg/ml incubated for 48 hrs. It is filed as functional.
For `C=C[C@]1(C)C[C@@H](OC(=O)CSc2nc(N(C)C)c3ccsc3n2)[C@]2(C)[C@H](C)CC[C@]3(CCC(=O)[C@H]32)[C@@H](C)[C@@H]1O`, the inhibition zone diameter came to 21.8 mm.
As to `C=C[C@]1(C)C[C@@H](OC(=O)CSc2nc(NCCO)cc(C(F)(F)F)n2)[C@]2(C)[C@H](C)CC[C@]3(CCC(=O)[C@H]32)[C@@H](C)[C@@H]1O`, the inhibition zone diameter was determined as 29 mm.
The same measure, in the same setting: under `C=C[C@]1(C)C[C@@H](OC(=O)CSc2nc(N3CCN(C)CC3)c3ccsc3n2)[C@]2(C)[C@H](C)CC[C@]3(CCC(=O)[C@H]32)[C@@H](C)[C@@H]1O` stands 26.1 mm.
On to `C=C[C@]1(C)C[C@@H](OC(=O)CSc2ncc(C)c(NCCO)n2)[C@]2(C)[C@H](C)CC[C@]3(CCC(=O)[C@H]32)[C@@H](C)[C@@H]1O`, for which the inhibition zone diameter stood at 27.6 mm.
Take `C=C[C@]1(C)C[C@@H](OC(=O)CSc2nc(N/N=C/c3ccc(F)cc3F)c3ccsc3n2)[C@]2(C)[C@H](C)CC[C@]3(CCC(=O)[C@H]32)[C@@H](C)[C@@H]1O`: the inhibition zone diameter turned out to be 22.8 mm.
For the compound `C=C[C@]1(C)C[C@@H](OC(=O)CSc2nc(N/N=C/c3ccccc3[N+](=O)[O-])c3ccsc3n2)[C@]2(C)[C@H](C)CC[C@]3(CCC(=O)[C@H]32)[C@@H](C)[C@@H]1O`, the inhibition zone diameter was found to be 21.5 mm.

For the next assay, the system named is Staphylococcus aureus. Nature of the assay: Antibacterial activity against Staphylococcus aureus assessed as inhibition of bacterial growth incubated for 24 hrs by microbroth two-fold dilution method. It is filed as functional.
With `C=C[C@]1(C)C[C@@H](OC(=O)CSc2nc(N(C)C)c3ccsc3n2)[C@]2(C)[C@H](C)CC[C@]3(CCC(=O)[C@H]32)[C@@H](C)[C@@H]1O`, the MIC came to 3.91 µg/mL (≈ 6.83 µM).
On the same count and under the same terms, under `C=C[C@]1(C)C[C@@H](OC(=O)CSc2nc(NCCO)cc(C(F)(F)F)n2)[C@]2(C)[C@H](C)CC[C@]3(CCC(=O)[C@H]32)[C@@H](C)[C@@H]1O` stands 0.488 µg/mL (≈ 0.814 µM); under `C=C[C@]1(C)C[C@@H](OC(=O)CSc2nc(N3CCN(C)CC3)c3ccsc3n2)[C@]2(C)[C@H](C)CC[C@]3(CCC(=O)[C@H]32)[C@@H](C)[C@@H]1O`, 0.122 µg/mL (≈ 0.195 µM).
Still for that read-out and setting: under `C=C[C@]1(C)C[C@@H](OC(=O)CSc2ncc(C)c(NCCO)n2)[C@]2(C)[C@H](C)CC[C@]3(CCC(=O)[C@H]32)[C@@H](C)[C@@H]1O` stands 0.244 µg/mL (≈ 0.447 µM); under `C=C[C@]1(C)C[C@@H](OC(=O)CSc2nc(N/N=C/c3ccc(F)cc3F)c3ccsc3n2)[C@]2(C)[C@H](C)CC[C@]3(CCC(=O)[C@H]32)[C@@H](C)[C@@H]1O`, 7.81 µg/mL (≈ 11.4 µM).
The same measure, in the same setting: under `C=C[C@]1(C)C[C@@H](OC(=O)CSc2nc(N/N=C/c3ccccc3[N+](=O)[O-])c3ccsc3n2)[C@]2(C)[C@H](C)CC[C@]3(CCC(=O)[C@H]32)[C@@H](C)[C@@H]1O` stands 7.81 µg/mL (≈ 11.3 µM).

The next assay deals with Escherichia coli. Nature of the assay: Antibacterial activity against Escherichia coli assessed as inhibition of bacterial growth incubated for 24 hrs by microbroth two-fold dilution method. In kind it is functional.
In the case of `C=C[C@]1(C)C[C@@H](OC(=O)CSc2nc(N(C)C)c3ccsc3n2)[C@]2(C)[C@H](C)CC[C@]3(CCC(=O)[C@H]32)[C@@H](C)[C@@H]1O`, the minimum inhibitory concentration (MIC) worked out at 15.6 µg/mL (≈ 27.3 µM).
Same read-out and setting: under `C=C[C@]1(C)C[C@@H](OC(=O)CSc2nc(NCCO)cc(C(F)(F)F)n2)[C@]2(C)[C@H](C)CC[C@]3(CCC(=O)[C@H]32)[C@@H](C)[C@@H]1O` stands 0.488 µg/mL (≈ 0.814 µM); under `C=C[C@]1(C)C[C@@H](OC(=O)CSc2nc(N3CCN(C)CC3)c3ccsc3n2)[C@]2(C)[C@H](C)CC[C@]3(CCC(=O)[C@H]32)[C@@H](C)[C@@H]1O`, 7.81 µg/mL (≈ 12.5 µM).
With `C=C[C@]1(C)C[C@@H](OC(=O)CSc2ncc(C)c(NCCO)n2)[C@]2(C)[C@H](C)CC[C@]3(CCC(=O)[C@H]32)[C@@H](C)[C@@H]1O`, the MIC worked out at 3.91 µg/mL (≈ 7.16 µM).
As for `C=C[C@]1(C)C[C@@H](OC(=O)CSc2nc(N/N=C/c3ccc(F)cc3F)c3ccsc3n2)[C@]2(C)[C@H](C)CC[C@]3(CCC(=O)[C@H]32)[C@@H](C)[C@@H]1O`, the minimum inhibitory concentration (MIC) is above 15.6 µg/mL.
Take `C=C[C@]1(C)C[C@@H](OC(=O)CSc2nc(N/N=C/c3ccccc3[N+](=O)[O-])c3ccsc3n2)[C@]2(C)[C@H](C)CC[C@]3(CCC(=O)[C@H]32)[C@@H](C)[C@@H]1O`: the minimum inhibitory concentration (MIC) was 7.81 µg/mL (≈ 11.3 µM).
